In the SangsterLogP compilation:

| Structure (SMILES) | logP |
| --- | --- |
| CC(=O)OCCNc1ccc(-c2ccncc2)cn1 | 2 |
| CC(=O)OCCOc1ccc(-c2ccncc2)cn1 | 1.92 |
| CC(=O)OCCNc1ccc(-c2ccncc2)c(C)n1 | 2.59 |
| CCC(=O)N1CCN(c2ccc(-c3ccncc3)cn2)CC1 | 2.39 |
| CC(=O)N1CCN(c2ccc(-c3ccncc3)cn2)CC1 | 2.04 |
| CC(=O)OCCOc1ccc(-c2ccccc2)c(C)n1 | 4 |
| CCC(=O)OCCCNc1ccc(-c2ccncc2)cn1 | 2.87 |
| CC(=O)OCCCNc1ccc(-c2ccncc2)c(C)n1 | 2.91 |
| CCC(=O)OCCNc1ccc(-c2ccncc2)cn1 | 2.47 |
| CC(=O)COC(C)CNc1ccc(-c2ccccc2)c(C)n1 (stereo not given) | 3.74 |
| CCC(=O)OCCCOc1ccc(-c2ccncc2)cn1 | 3.07 |
| CC(=O)OCC(COc1ncc(-c2ccncc2)cc1C#N)OC(C)=O (stereo not given) | 2.51 |
| O=C(OCCCNc1ccc(-c2ccncc2)cn1)c1ccccc1 | 4.06 |
| CC(=O)OCCCNc1ccc(-c2ccncc2)cn1 | 2.42 |
| CC(=O)OCCCOc1ccc(-c2ccncc2)cn1 | 2.48 |
| O=C(OCCNc1ccc(-c2ccncc2)cn1)c1cccnc1 | 2.58 |
| CCC(=O)OCCOc1ccc(-c2ccncc2)c(C)n1 | 3.21 |
| CC(=O)OCCN(CCOC(C)=O)c1ncc(-c2ccncc2)cc1C#N | 2.44 |
| CC(=O)N1CCN(c2ccc(-c3ccccc3)c(C)n2)CC1 | 4.08 |
| O=C(OCCNc1ccc(-c2ccncc2)cn1)c1ccccc1 | 3.84 |
